Test results taken from PMC3894197, “Penam Sulfones and β-Lactamase Inhibition: SA2-13 and the Importance of the C2 Side Chain Length and Composition” (PLoS ONE, 2014).

Legend:
SHV-1 [1] = biological target: T1, SHV-1 (Klebsiella pneumoniae, UniProt P0AD64); test: IC50 by nitrocefin hydrolysis after pre-incubation of enzyme and inhibitor; assay type: biochemical
T1 construct: made in house
Description: (§1) Measurements were performed using glass cuvettes with 1 mL final volume in 1 mM phosphate-buffered saline (PBS) at pH 7.4 as previously described.

wt SHV-1 = biological target: T2, wt SHV-1 (Klebsiella pneumoniae, UniProt P0AD64); test: biochemical; assay type: biochemical
T2 construct: made in house
Description: as §1

SHV-1 [2] = biological target: T1, SHV-1; test: Inactivation kinetics (kinact, KI, kinact/KI) with nitrocefin; assay type: biochemical
Description: kinact (the first-order rate constant of inactivation) was determined by monitoring the inactivation of the enzyme by increasing concentrations of inhibitor over a time course using 21 nM of enzyme and 100 µM of nitrocefin according to a previously published method. The k obs determined using Origin (OriginLab Corporation) to plot the reciprocal of the ordinate of the intersection of the straight lines obtained from the initial velocity of inhibition, v o, and the final velocity of inhibition, vf. Each k obs was plotted against the inhibitor concentration [I] and fit to equation 2 to calculate k inact and k inact/K I. [drawing 2] (2)

SHV-1 [3] = biological target: T1, SHV-1; test: Partition ratio (turnover number, tn); assay type: biochemical; conditions: SHV-1, 24 hour incubation, loss of >90% nitrocefin hydrolysis
Description: The partition ratio (turnover number, t n = k cat/k inact) or the partitioning of the initial enzyme-inhibitor complex between hydrolysis and enzyme inactivation was measured by incubating fixed enzyme concentrations with increasing amounts of inhibitor over a 24 hour period in a total volume of 100 µL as described. After 24 hours, a 20 µL aliquot of the incubation mix was removed and the steady-state hydrolysis of nitrocefin was measured and compared to an uninhibited control. The t n was determined as the inhibitor proportion that led to a loss of >90% of nitrocefin hydrolysis by the enzyme.

[4] = system: E. coli ATCC 35218 containing TEM-1; test: Antimicrobial disc assay; assay type: cell-based, Escherichia coli; conditions: 10 µg ampicillin and 10 µg inhibitor; disc and ampicillin alone 6 mm
Description: (§2) In brief, paper discs (6 mm diameter) were soaked with 10 µg inhibitor and 10 µg of ampicillin or cephalothin. Discs were placed on Mueller-Hinton (M-H) agar plates plated with 10^4–10^5 CFUs of Escherichia coli DH10B harboring SHV-1 or PDC-3 or E. coli ATCC 35218 containing TEM-1. Measured zone clearing diameters were used to determine susceptibility.
(§3) Supplementary file pone.0085892.s003.docx: Table S1 Antimicrobial disc assays. These assays were performed with 10 µg ampicillin and 10 µg inhibitor. The size of the disc and the ampicillin zone size alone is 6 mm. (DOCX) Click here for additional data file.

E. coli DH10B PDC-3 = test: Antimicrobial disc assay; assay type: cell-based, Escherichia coli; conditions: for Disc Assay Zone E. coli DH10B PDC-3: 10 µg ampicillin and 10 µg inhibitor, disc and ampicillin alone 6 mm
Description: as §2, §3

E. coli DH10B SHV-1 = test: Antimicrobial disc assay; assay type: cell-based, Escherichia coli; conditions: for Disc Assay Zone E. coli DH10B SHV-1: 10 µg ampicillin and 10 µg inhibitor, disc and ampicillin alone 6 mm
Description: as §2, §3

KPC-2 = system: KPC-2; design: method as in PMID 22330909; conditions: the defined K i represents the K m used in Ke et al.; cited from earlier work
SHV-1 [5] = biological target: T1, SHV-1; test: Reactivation of β-lactamase (k obs react) after inhibitor/enzyme incubation; assay type: biochemical; conditions: SHV-1, 90:1 inhibitor:enzyme, 30 min incubation
Description: Then, unbound inhibitor was washed out with a Macro Spin Column G10 (The Nest Group). A competition assay was performed with 100 µM of nitrocefin and a 5 µL aliquot of the incubated mixture at three different time points (5, 30, and 1440 min) to determine the reactivation of the enzyme. Tazobactam kinetic profiles are included for comparison. EnzFitter™ (Biosoft) and Microsoft Excel were used to analyze the data.

SHV K234R [6] = biological target: T3, SHV K234R (Klebsiella pneumoniae, UniProt P0AD64, K230R); test: biochemical; assay type: biochemical
T3 construct: GST (N, cleaved yes); made in house; host or cells: Origami2 (DE3) E. coli
Description: as §1

SHV K234R [7] = biological target: T3, SHV K234R; test: Circular dichroism thermal denaturation; conditions: CD at 208 nm, apo-K234R 48.2°C
Description: (§4) Circular dichroism (CD) was carried out on the SHV-1 and the SHV K234R proteins with and without SA2-13 and this is presented in Figure S1. In short, CD was performed on a JASCO J-815 spectrometer with a Peltier-effect temperature controller (GE Healthcare) as previously described. Quartz cells with a 0.1 cm pathlength were used for experiments (Hellma). Thermal denaturation was performed from 22–72°C with a heating rate of 2°C/min and raw data was corrected for the fraction of denatured protein (f u). The collected data at 208 nm was utilized to calculate a melting temperature (T m).

SHV-1 [8] = biological target: T1, SHV-1; test: Circular dichroism thermal denaturation; conditions: CD at 208 nm, apo-SHV-1 54.2°C
Description: as §4

SHV-1 [9] = biological target: T1, SHV-1; conditions: cited from earlier work

T3 sequence (P0AD64 22-286 K230R): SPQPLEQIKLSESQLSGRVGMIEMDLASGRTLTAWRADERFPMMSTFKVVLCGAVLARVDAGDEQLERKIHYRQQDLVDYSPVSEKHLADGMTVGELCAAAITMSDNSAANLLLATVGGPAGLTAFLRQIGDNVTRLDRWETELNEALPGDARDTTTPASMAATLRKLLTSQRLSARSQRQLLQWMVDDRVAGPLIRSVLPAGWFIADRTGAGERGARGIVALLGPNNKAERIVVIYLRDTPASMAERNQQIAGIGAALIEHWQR
T1 sequence (P0AD64 22-286): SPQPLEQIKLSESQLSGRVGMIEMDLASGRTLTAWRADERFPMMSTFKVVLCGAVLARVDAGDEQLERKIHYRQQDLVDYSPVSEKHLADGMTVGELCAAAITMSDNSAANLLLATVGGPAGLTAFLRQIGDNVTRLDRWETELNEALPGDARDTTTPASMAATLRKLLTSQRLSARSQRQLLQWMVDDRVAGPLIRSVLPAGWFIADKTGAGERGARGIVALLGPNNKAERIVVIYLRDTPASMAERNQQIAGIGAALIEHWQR
T2 sequence (P0AD64 22-286): as above

With `CC1(C(=O)OCC(N)=O)C(C(=O)O)N2C(=O)CC2S1(=O)=O` (centres unmarked) [PSR-3-226] the IC50 (SHV-1 [1]) was 370 ± 30 nM, the Ki (wt SHV-1) was 2600 ± 300 nM and the Ki (SHV-1 [2]) was 1000 ± 100 nM. For the same compound, the “k inact/K I” value (SHV-1 [2]; SHV-1) was 60000 ± 10000 M⁻¹ s⁻¹, the “t n 24h” value (SHV-1 [3]) was over 1500 and the “Disc Assay Zone E. coli ATCC 35218 (TEM-1)” value [4] was 12 mm. The “Disc Assay Zone E. coli DH10B PDC-3” value (E. coli DH10B PDC-3) was 12 mm, the “microbial activity versus AmpC (PDC-3) expressed in E. coli DH10B” value (E. coli DH10B PDC-3; disc assay) was “had microbial activity” and the “Disc Assay Zone E. coli DH10B SHV-1” value (E. coli DH10B SHV-1) was 6 mm. The “K m against KPC-2” value (KPC-2) was 3.8 ± 0.4 µM.
In the case of `CC1(COC(=O)CCC(=O)O)C(C(=O)O)N2C(=O)CC2S1(=O)=O` (centres unmarked) [PSR-4-155], the IC50 (SHV-1 [1]) is reported as 440 ± 40 nM, the Ki (wt SHV-1) is reported as 2700 ± 200 nM and the “Ki fold higher compared to PSR-4-157” value (wt SHV-1; SHV-1) is reported as about 2 fold. The Ki (SHV-1 [2]) was 2100 ± 200 nM, the “KI fold higher compared to PSR-4-157” value (SHV-1 [2]; SHV-1) was about 2 fold and the “k inact/K I” value (SHV-1 [2]; SHV-1) was 50000 ± 10000 M⁻¹ s⁻¹. The “kinact/KI fold lower compared to PSR-4-157” value (SHV-1 [2]; SHV-1) was 2 fold, the “k obs react 30 min” value (SHV-1 [5]) was over 0.2 s⁻¹ and the “t n 24h” value (SHV-1 [3]) was over 1500. The “Disc Assay Zone E. coli ATCC 35218 (TEM-1)” value [4] was 13 mm, the “Disc Assay Zone E. coli DH10B PDC-3” value (E. coli DH10B PDC-3) was 6 mm and the “Disc Assay Zone E. coli DH10B SHV-1” value (E. coli DH10B SHV-1) was 6 mm.
In the case of `CC1(COC(=O)CCCCC(=O)O)C(C(=O)O)N2C(=O)CC2S1(=O)=O` (centres unmarked) [PSR-4-157], the IC50 (SHV-1 [1]) is reported as 160 ± 10 nM, the “fold higher IC50 compared to SA2-13” value (SHV-1 [1]; SHV-1) is reported as 2 fold and the Ki (wt SHV-1) is reported as 1700 ± 100 nM. The Ki (SHV-1 [2]) was 1000 ± 200 nM, the “k inact/K I” value (SHV-1 [2]; SHV-1) was 100000 ± 20000 M⁻¹ s⁻¹ and the “t n 24h” value (SHV-1 [3]) was over 1500. The “Disc Assay Zone E. coli ATCC 35218 (TEM-1)” value [4] was 11 mm, the “Disc Assay Zone E. coli DH10B PDC-3” value (E. coli DH10B PDC-3) was 6 mm and the “Disc Assay Zone E. coli DH10B SHV-1” value (E. coli DH10B SHV-1) was 6 mm.
With `C[C@]1(COC(=O)CCCC(=O)O)[C@H](C(=O)O)N2C(=O)C[C@H]2S1(=O)=O` [SA2-13] the IC50 (SHV-1 [1]) was 81 ± 7 nM, the Ki (SHV K234R [6]) was 2100 ± 200 nM and the “fold increase of K i for K234R SHV relative to wt SHV-1” value (SHV K234R [6]; K234R vs wt SHV-1) was 2 fold. The Ki (wt SHV-1) was 1700 ± 100 nM, the Ki (SHV-1 [2]) was 190 ± 10 nM and the “k inact/K I” value (SHV-1 [2]; SHV-1) was 370000 ± 60000 M⁻¹ s⁻¹. The “k obs react 30 min” value (SHV-1 [5]) was 0.004 ± 0.001 s⁻¹, the “t n 24h” value (SHV-1 [3]) was 120 and the “Disc Assay Zone E. coli ATCC 35218 (TEM-1)” value [4] was 14 mm. The “Disc Assay Zone E. coli DH10B PDC-3” value (E. coli DH10B PDC-3) was 6 mm, the “Disc Assay Zone E. coli DH10B SHV-1” value (E. coli DH10B SHV-1) was 6 mm and the “melting temperature Tm of SHV K234R with inhibitor” value (SHV K234R [7]) was “unaffected”. For the same compound, the “melting temperature Tm of SHV K234R with inhibitor” value (SHV K234R [7]; listed as MN-2-261) was 48.7 °C, the “melting temperature Tm of SHV-1 with inhibitor” value (SHV-1 [8]) was “unaffected” and the “melting temperature Tm of SHV-1 with inhibitor” value (SHV-1 [8]; listed as MN-2-261) was 54.5 °C. The “k react fold decrease compared to tazobactam” value (SHV-1 [9]) was “about 10 fold”.
With `C[C@]1(Cn2ccnn2)[C@H](C(=O)O)N2C(=O)C[C@H]2S1(=O)=O` [tazobactam, reference compound] the “k obs react 30 min” value (SHV-1 [5]) was 0.040 ± 0.001 s⁻¹, the “t n 24h” value (SHV-1 [3]) was 5 and the “Disc Assay Zone E. coli ATCC 35218 (TEM-1)” value [4] was 21 mm. For the same compound, the “Disc Assay Zone E. coli DH10B PDC-3” value (E. coli DH10B PDC-3) was 14 mm, the “Disc Assay Zone E. coli DH10B SHV-1” value (E. coli DH10B SHV-1) was 6 mm and the “inhibition of SHV-1 expressing cells” value (E. coli DH10B SHV-1; DH10B E. coli, high SHV-1 expression) was “Inhibition was not observed”.
